The text below walks through data of US20160213692A1, “ADVANCED METHOD OF TREATMENT AND MANAGEMENT OF CHRONIC HEPATITIS C INFECTION” (priority 2015, published 2016).

Data set [1] concerns male Wistar rats. The data set is described as follows: Liver and renal function parameters in serum (Cobas e411) of treated rats. The method, then: (§1) A total of 80 male Wistar rats weighing 250-300 gm were used. All animals received humane care during the study protocol and during sacrifice.
(§2) The study duration was 5 weeks. Peg-INF-α-2a was prepared by diluting the content of a full syringe (180 μg/0.5 ml) in 9.5 ml sterile normal saline to prepare a final volume of 10 ml and the final concentration was 18 μg/ml. Each rat in the ‘P’, ‘PD’, ‘PR’ and ‘PRD’ groups received a weekly subcutaneous injection of 0.33 ml (6 μg/rat) for a total of 4 injections. The drug was prepared fresh on the day of use. […] Cholecalciferol ([…]) was prepared by adding 4 ml to 16 ml saline every morning to form a final concentration of 1000 IU/mL. Each rat in the ‘PD’, ‘PRD’, ‘PR’ and ‘VitD’ groups received 0.5 ml/day (500 IU/day) for the full study duration. Cholecalciferol, and its dose, was chosen over calcitriol, the hormonal form of vitamin D, to avoid the risk of soft tissue calcification (Salum et al, 2012). Following 4 injections, the rats were sacrificed in the fifth week at the time of the 5th injection would have been given. RBV and vitamin D3 were continued till the day before sacrifice.
(§3) All Rats were sacrificed on the same day under anesthesia using diethyl ether (Fisher Scientific UK Ltd, Loughborough, UK) a week after the last injection. 1 ml of blood was collected on EDTA for CBC and 3 ml of blood were collected in plane tube immediately after cutting the vena cava. Blood samples in plane tubes were centrifuged and the serum was stored in −20° C. for routine biochemistry and to measure serum concentrations of 25-OH vitamin D and EPO.
The quantitative measurement of serum liver enzymes (ALP, ALT and AST), total and indirect bilirubin, creatinine and urea was done using Cobas e411 (Roche Diagnostics International Ltd, Switzerland) according to the manufacturer protocol.

The conditions of data set [2]: male, Wistar, rat, in vivo, 5 weeks. On the procedure: as §1, §2
All Rats were sacrificed on the same day under anesthesia using diethyl ether (Fisher Scientific UK Ltd, Loughborough, UK) a week after the last injection. […]

Data set [3] deals with male Wistar rats. The data set is described as follows: Haematological profile / erythrocyte indices (Sysmex XS 500) of treated rats. The method, then: as §1, §2, §3
Whole blood samples (1 ml) collected on EDTA were processed on Sysmex XS 500 (Sysmex, IL, USA) for the measurement of hemoglobin concentrations, RBCs count, packed cell volume (PCV), mean corpuscular volume (MCV), mean corpuscular hemoglobin (MCH) an mean corpuscular hemoglobin concentration (MCHC).

Data set [4] has as its system monkey red cells. As to conditions: in vitro incubation; cited from earlier work.
Data set [5] relates to human red cells. As to conditions: in vitro incubation; cited from earlier work.
The test system of data set [6] is rat red cells. As to conditions: in vitro incubation; cited from earlier work.
Where [7] appears, read: whole blood, male Wistar rats, 5 weeks.
[8] abbreviates: serum, male Wistar rats, 5 weeks.

Marks after values point to notes of the source that are not given here.

`NC(=O)c1ncn([C@@H]2O[C@H](CO)[C@@H](O)[C@H]2O)n1` [R group, ribavirin]: in data set [1] (rat, in vivo), the ALP came out at 119 ± 9.9 IU/L, the ALT is listed as 66.1 ± 2.6 U/L, the AST came out at 78.4 ± 3.2 U/L and the Creatinine is listed as 0.22 ± 0.03 mg/dL. In data set [1] (rat, in vivo), the “Indirect Bilirubin” value is recorded as 0.17 ± 0.07 mg/dL, the “Total Bilirubin” value is 0.49 ± 0.14 mg/dL and the Urea amounted to 47.3 ± 5.8 mg/dL. In addition, the “25-OH Vitamin D” value in data set [2] was 42 ± 10^c,e ng/mL. Moreover, in data set [3] (rat, in vivo), the MCH is reported as 17.6 ± 0.7 pg, the MCHC was 34.4 ± 0.9^c,e pg/dL, the MCV turned out to be 64.3 ± 4.2 fL and the PCV is given as 42.1 ± 2.7%. In data set [3] (rat, in vivo), the RBCs was 7.58 ± 0.7^a,b,c,e ×10^6/μl. Moreover, the Hb in data set [3] (setting [7]) is 13.1 ± 1^a,b,c,e g/dL. Further, the “initial drug content retained by red cells” value (from here on “initial drug content retained”) in data set [4] is 77%. Also, the “initial drug content retained” value in data set [5] was 45%. In data set [6], the “initial drug content retained” value was 20%.
On to `C=C1CC[C@H](O)C/C1=C/C=C1\CCC[C@]2(C)[C@@H]([C@H](C)CCCC(C)C)CC[C@@H]12` [VitD group, cholecalciferol], for which, in data set [1] (setting [8]), the ALT came out at 66.7 ± 4.2 U/L, the AST is given as 75.8 ± 4.2 U/L, the Creatinine was 0.2 ± 0.06 mg/dL and the “Indirect Bilirubin” value stood at 0.15 ± 0.08 mg/dL. Moreover, in data set [1] (setting [8]), the “Total Bilirubin” value stood at 0.51 ± 0.23 mg/dL and the Urea turned out to be 48.1 ± 5.2 mg/dL. The ALP in data set [1] (serum, male Wistar rats, 5 weeks, mean ± spread) stood at 120.7 ± 12.3 IU/L. The development of anemia result in data set [3] (addition of cholecalciferol 500 IU/day to Peg-INF-α and/or RBV, rats, 5 weeks) was “prevented the development of anemia”. Further, in data set [3] (setting [7]), the Hb is recorded as 15.1 ± 0.7^d,f g/dL, the MCH turned out to be 17.4 ± 0.7 pg, the MCHC is recorded as 34 ± 0.8^c,e,g pg/dL and the MCV came to 61.3 ± 1.8 fL. In addition, in data set [3] (setting [7]), the PCV is given as 44.9 ± 1.8% and the RBCs is recorded as 8.9 ± 0.5^d,f ×10^6/μl.
